Assay results reported in patent US20110281909A1, “SUBSTITUTED QUINOLINE DERIVATIVES AS H1 RECEPTOR ANTAGONISTS” (GLAXO GROUP LIMITED, priority 2007, published 2011).
Where a name gives a salt, the structure may show the parent alone.

Key:
human H1 receptor = target: T1, human H1 receptor (Homo sapiens, UniProt P35367); test: Histamine H1 functional antagonist assay: antagonist duration after washout; assay type: cell-based; settings: at one or more time points after washout
T1 construct: expressed in transfected cells
T1 sequence (P35367 whole entry): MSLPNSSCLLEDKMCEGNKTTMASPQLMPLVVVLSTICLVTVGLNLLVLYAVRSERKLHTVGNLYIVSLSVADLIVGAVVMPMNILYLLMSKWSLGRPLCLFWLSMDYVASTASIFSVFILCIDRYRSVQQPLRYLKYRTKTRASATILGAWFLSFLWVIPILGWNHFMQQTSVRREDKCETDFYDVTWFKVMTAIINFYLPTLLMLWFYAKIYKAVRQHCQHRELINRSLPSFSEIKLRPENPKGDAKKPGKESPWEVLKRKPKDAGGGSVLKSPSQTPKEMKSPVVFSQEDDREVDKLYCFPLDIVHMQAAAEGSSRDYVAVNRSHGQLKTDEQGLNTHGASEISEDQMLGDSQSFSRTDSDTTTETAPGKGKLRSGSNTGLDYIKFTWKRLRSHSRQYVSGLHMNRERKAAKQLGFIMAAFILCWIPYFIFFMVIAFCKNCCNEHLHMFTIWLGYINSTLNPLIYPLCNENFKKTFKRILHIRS
Method: The human H1 receptor is cloned using known procedures described in the literature [Biochem. Biophys. Res. Commun., 201(2):894 (1994)]. Chinese hamster ovary (CHO) cells stably expressing the human H1 receptor are generated according to known procedures described in the literature [Br. J. Pharmacol., 117(6):1071 (1996)]. […] Following the 30 min antagonist incubation period, the cells are washed two or three times with 200 μl of PBS and then 100 μl Tyrodes buffer is added to each well to initiate antagonist dissociation. […] After this period, the cells are challenged with histamine in the FLIPR™ as described above. The dose ratio at each time point is used to determine the fractional H1 receptor occupancy by the following equation: fractional receptor occupancy=(DR-1)/DR. The decrease in receptor occupancy over time approximates to a straight line and is analysed by linear regression. The slope of this straight line fit is used as an index of the dissociation rate of the antagonist. The dose ratios for antagonist treated cells and for antagonist treated and washed cells at each time point are used to calculate a relative dose ratio (rel DR) which is also used as an index of antagonist duration. […]

[1] = tested on: histamine-induced congestion; test: Intranasal challenge method: whole body plethysmography; assay type: in vivo, Female Dunkin-Hartley guinea pigs; settings: guinea pig, dosed intranasally at 1 mg/ml either 3 hr or 24 hr before histamine challenge
Method: Intranasal Challenge Method: Whole Body Plethysmography
Female Dunkin-Hartley guinea pigs 150-250 g are sensitised twice daily for 5 days (week 1) with ovalbumin (OVA) and aluminium hydroxide (Al(OH)3 or Alum) in physiological saline, 25 μl/nostril. Solution is made up at 20 μg/ml OVA, 180 mg/ml Alum.
Pretreatment with test compound is performed at various times prior to histamine challenge. Efficacy dose-response curves are determined 1 hr and/or 3 hr after dosing whereas duration of action may be studied up to 7 days post dose (for example, at 24 hours). Test compounds are formulated as solutions in 0.9% sterile saline or suspensions in 0.9% sterile saline/tween80. […]
After the stipulated pre-dose time has been reached, guinea pigs are re-anaesthetised with isoflurane and dosed with either 10 mM or 15 mM histamine or phosphate-buffered saline (PBS), (25 μl per nostril). […] Data are analysed using ANOVA with post-hoc Fishers LSD test (general linear models, Statistica®) and finally Hochberg adjustment. Inhibition of histamine-induced congestion is determined by statistically significant differences between the mean responses of compound pre-treated groups compared to the vehicle pre-treated, histamine-challenged group.

## CCCCc1cc(OC2CCN(CCCCNS(=O)(=O)CC(C)C)CC2)c2ncccc2c1 [Example 26, N-(4-{4-[(6-Butyl-8-quinolinyl)oxy]-1-piperidinyl}butyl)-2-methyl-1-propanesulfonamide, dihydrochloride salt]
Human H1 receptor
  duration of action compared with azelastine in the histamine H1 functional antagonist assay: longer duration of action than azelastine

## CN1CCCC(n2nc(Cc3ccc(Cl)cc3)c3ccccc3c2=O)CC1 (centres unmarked) [azelastine]
[1]
  inhibition of the response to histamine challenge (duration of action) in the intranasal challenge model: failed to show a similar duration of action
